Patent US20230190717A1, “P38 GAMMA INHIBITORS AND METHOD OF USE THEREOF” (City of Hope, priority 2017, published 2023)
“Also recorded” adds a separate entry of the source.

Assays:
[1] = system: p38γ; test: p38γ inhibition at the concentration used in the RNAi library screen; settings: 10 uM, data not shown
From the text: Synthetic lethal RNAi screen. We will use a synthetic lethal RNAi screen in the presence of sub-lethal p38γ inhibition to identify critical downstream signaling components in CTCL (FIG. 31). We will transduce control and p38γ inhibitor-treated Hut78 CTCL cells with a pooled retroviral RNAi library that targets genes involved in human cancers. Because loss of p38γ alone causes CTCL cell death, we will titrate the dose and/or length of exposure to the p38γ inhibitor to ensure a sub-lethal effect. The target gene of an shRNA that causes death in cells treated with sub-lethal p38γ inhibitor but not control cells will be identified as synthetic lethal/synergistic. Based on our preliminary data showing synergy between F7 and HDACi, we are expecting to identify HDAC family members in the RNAi screen. We will further narrow down the corresponding HDACi for each HDAC member identified, and study potential synergistic effects to achieve of killing CTCL cells. For example, our preliminary data has shown using an RNAi library plus the p38 inhibitor Ly2228820, we have successfully selected loss of HDAC3 as a synergistically lethal element to p38 pathway inhibition, including α, β, and γ isoforms of p38 by LY2228820 (10 uM) […] We will further test the combination of p38γ inhibition with several HDAC3 inhibitors (e.g., RGFP966) for further mechanistic study in Hut78 cells.

[2] = system: p38γ; test: Time-resolved fluorescence energy transfer enzyme kinetic analysis; assay type: biochemical
[3] = system: Hut78 cells; test: CellTiterGlo cell viability, Hut78; assay type: cell-based, human; settings: for IC50: Homo sapiens, HuT78, 72 h; for effect on viability of Hut78 cells: varying concentrations, 72 hr
Method: (§2) Viability assays using trypan blue exclusion and CellTiterGlo Cell Viability Assay: Cell viability was calculated by diluting cell suspensions 1:1 in 0.4% TRYPAN BLUE solution (Sigma, St. Louis, Mo.) and counting the number of viable cells using a TC20™ automated cell counter (Bio-Rad, Irvine, Calif.) that automatically excludes the number of non-viable cells stained with trypan blue per total cells. […] All data points are an average of triplicate experiments.
(§3) Absorbance was monitored at 490 nm using an automated BMG PHERAstar plate reader (BMG Labtech). […] All experiments are repeated in three independent experiments and data represented are the average of triplicate experiments.

[4] = system: HH cells; test: CellTiterGlo cell viability, HH; assay type: cell-based; settings: Homo sapiens, 72 h
Method: as §2, §3

[5] = system: PBMCs isolated from an SS patient; test: Annexin V/PI flow cytometry, SS patient PBMCs; assay type: cell-based, human; settings: SS PBMC, 200 nM, 24 h
From the text: (§1) Data presented are one experiment in triplicate.

[6] = system: Hut78 CTCL cell line; test: Annexin V/PI flow cytometry, Hut78; assay type: cell-based, human; settings: Hut78, 200 nM, 24 h
From the text: as §1

[7] = system: p38γ; test: p38γ mRNA level and protein expression (Western blot); assay type: cell-based; settings: Western blot, 24 hr, 500 nM
From the text: qRT-PCR (real-time quantitative reverse transcription PCR): Total RNA was generated using TRIZOL reagent (Life Technologies, Carlsbad, Calif.) followed by double DNase treatment and column purification using Qiagen RNeasy Clean-up (Qiagen, Germantown, Md.). The Invitrogen […] III First-Strand Synthesis System was used for cDNA synthesis and TaqMan 5700 Sequence Detection System (Applied Biosystems, Foster City, Calif.) were used for qRT-PCR. All PCR reactions were run in triplicate. The amplified transcripts were quantified using the comparative CT method as described. cDNA and primers for MAPK11, 12, 13, and 14 and GAPDH (Table 9) were added to SYBR GREEN PCR Master Mix (SYBR Green I Dye, […]® DNA polymerase, dNTPs with dUTP and optimal buffer components; Applied Biosystems) and subjected to PCR amplification (1 cycle at 95° C. for 3 min; 35 cycles at 95° C. for 15 s and 55° C. for 30 s; 1 cycle at 50° C. for 2 min).

[8] = system: Hut78 cells; test: Hut78 cell proliferation / viability; assay type: cell-based, human
[9] = system: p38γ; test: p38 isoform kinase activity (FIG. 20A); assay type: biochemical
[10] = system: SS patient cells; test: Apoptosis and growth in primary SS patient cells; assay type: cell-based, human
[11] = system: healthy CD4+ T cells; test: Apoptosis and growth in healthy CD4+ T cells; assay type: cell-based, human; settings: FIG. 19E
[12] = system: CTCL cells; test: CTCL cell growth / killing; assay type: cell-based
[13] = system: Hut78 xenografts; test: Hut78 xenograft tumor growth in mice; assay type: in vivo
[14] = system: p38γ substrate DLGH1 at Ser158; test: Western blot of Hut78 cells for phosphorylation of p38γ substrate; assay type: cell-based, human
[15] = system: p38γ substrate DLGH1 at Ser158; test: Immunohistochemistry in F7-treated CTCL xenograft mouse tissue; assay type: in vivo; settings: data not shown
[16] = biological target: PI3Kγ (Homo sapiens, UniProt P48736); settings: PI3Kγ isoform; cited from earlier work
[17] = system: H9 cells; test: CellTiterGlo cell viability, H9; settings: Homo sapiens, H9, 72 h
Method: as §2, §3

[18] = biological target: T1, p38δ (Homo sapiens, UniProt O15264); test: p38 isoform kinase activity (FIG. 20A); assay type: biochemical; set-up: human recombinant p38 α, β, γ or δ protein (active full-length); purchased SignalChem; host or cells: baculovirus in Sf9 insect cells; settings: p38δ (printed "6")
T1 sequence (O15264 1-365): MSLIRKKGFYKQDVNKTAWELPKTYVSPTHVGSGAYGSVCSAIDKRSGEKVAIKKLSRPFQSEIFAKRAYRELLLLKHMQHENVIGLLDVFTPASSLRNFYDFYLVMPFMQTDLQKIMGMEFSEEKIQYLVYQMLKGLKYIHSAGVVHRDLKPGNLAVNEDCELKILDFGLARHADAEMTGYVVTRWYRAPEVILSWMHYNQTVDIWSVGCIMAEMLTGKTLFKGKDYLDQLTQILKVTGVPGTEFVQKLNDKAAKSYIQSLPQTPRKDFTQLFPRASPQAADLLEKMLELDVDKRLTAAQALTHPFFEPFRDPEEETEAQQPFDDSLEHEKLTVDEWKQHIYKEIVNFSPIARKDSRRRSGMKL

[19] = system: phosphorylation of Akt at ser473; test: Western blot of Akt Ser473 phosphorylation in Hut78; assay type: cell-based, human; settings: Hut78, 4 hr treatment
Method: Western blot: Western blots were performed as described previously [5]. Rabbit primary antibodies (Cell Signaling Technology (CST), Danvers, Mass.) were used at the following dilutions: anti-p38α, -p38β, -p38γ, and -p38δ (1:1000), anti-B-tubulin (1:2000), anti-p38 GAPDH 1:1000. […] For detection of p38γ protein level in SS patient samples we used a monoclonal antibody that close to N-terminus of human p38γ MAPK (SAPK3) from Abcam ((ab205926).

[20] = biological target: T2, p38 γ (Homo sapiens, UniProt P53778); test: ADP-Glo in vitro kinase assay, p38γ; assay type: biochemical; set-up: human recombinant p38 α, β, γ or δ protein (active full-length); purchased SignalChem; host or cells: baculovirus in Sf9 insect cells; settings: for inhibitory kinase activity against p38γ: PI3K inhibitors at 1 and 10 μM; for IC50: in vitro inhibition assay
T2 sequence (P53778 1-367): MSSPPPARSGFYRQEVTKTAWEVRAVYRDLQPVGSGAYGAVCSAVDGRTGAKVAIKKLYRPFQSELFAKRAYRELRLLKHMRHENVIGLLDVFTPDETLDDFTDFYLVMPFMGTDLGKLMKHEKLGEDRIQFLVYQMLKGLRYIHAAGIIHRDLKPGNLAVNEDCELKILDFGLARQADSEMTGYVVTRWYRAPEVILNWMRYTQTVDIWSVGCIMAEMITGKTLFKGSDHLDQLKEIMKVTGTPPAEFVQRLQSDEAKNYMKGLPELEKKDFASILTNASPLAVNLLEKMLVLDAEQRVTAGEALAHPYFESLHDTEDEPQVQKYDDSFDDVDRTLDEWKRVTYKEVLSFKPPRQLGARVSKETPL
Method: All compounds are cell-permeable, reversible and well-characterized. For the biochemical screening, kinase assays in vitro were performed using ADP-Glo kit (Promega). The luminescent ADP-Glo kinase assay measures ADP produced from ATP consumption in the reaction.
Kinase assay in vitro: Kinase enzyme assays in vitro were performed using ADP-Glo kit (Promega, Wis.). The luminescent ADP-Glo kinase assay measures ADP produced from ATP consumption in a kinase enzyme reaction. […] Briefly, in this experiment, human recombinant p38 α, β, γ or δ protein (active full-length) expressed by baculovirus in sf9 insect cells (SignalChem, Vancouver, Canada) was homogenized in wells of white opaque 96-well microplates with the kinase buffer that consisted of 40 mM Tris-HCl (pH 7.5), 20 mM MgCl2, 0.1 mg/mL BSA and 50 μM DTT. […] Next, synthetic peptide substrates ([sequence]) were added to the mixture at final concentration of 0.2 μg/μL, followed by adding ATP at various concentrations. The 50 μL mixture was reacted at room temperature for 60 min. Then, ADP-Glo Reagent was incubated in the mixture at room temperature for 40 min, followed by incubation of Kinase Detection Reagent for another 30 min with minor modification as described in the supplier's instruction. Luminescence was measured at an integration time of 0.5 second using an automated BMG PHERAstar plate reader (BMG Labtech). Each experiment was conducted in duplicate or triplicate. […] IC50 values were determined using CalcuSyn software (Biosoft).
IC50 values were determined using CalcuSyn software (Biosoft) based on the data of Figure a.
IC50 values were determined using CalcuSyn software (Biosoft).
All compounds are cell-permeable, reversible, and well-characterized. For the biochemical screening, kinase assays in vitro were performed using ADP-GLO kit (Promega) following manufactures instructions. […] Briefly, for in vitro assay experiments, human recombinant p38 α, β, γ or δ proteins (active full-length) were from [sequence], and followed the protocol of the company. […] Then, ADP-GLO REAGENT was incubated in the mixture at room temperature for 40 min, followed by incubation of Kinase Detection Reagent for another 30 min. IC50 values were determined using [sequence] software (Biosoft, Cambridge, United Kingdom).

[21] = system: CTCL cells; test: Cell viability, CTCL cells (pirfenidone); assay type: cell-based; settings: Homo sapiens, read-out: IC50 CTCL cell growth / cell killing
[22] = biological target: T3, p38γ (Mus musculus, UniProt O08911); settings: requires a high dose; cited from earlier work
T3 construct: host or cells: mice (in vivo)
T3 sequence (O08911 whole entry): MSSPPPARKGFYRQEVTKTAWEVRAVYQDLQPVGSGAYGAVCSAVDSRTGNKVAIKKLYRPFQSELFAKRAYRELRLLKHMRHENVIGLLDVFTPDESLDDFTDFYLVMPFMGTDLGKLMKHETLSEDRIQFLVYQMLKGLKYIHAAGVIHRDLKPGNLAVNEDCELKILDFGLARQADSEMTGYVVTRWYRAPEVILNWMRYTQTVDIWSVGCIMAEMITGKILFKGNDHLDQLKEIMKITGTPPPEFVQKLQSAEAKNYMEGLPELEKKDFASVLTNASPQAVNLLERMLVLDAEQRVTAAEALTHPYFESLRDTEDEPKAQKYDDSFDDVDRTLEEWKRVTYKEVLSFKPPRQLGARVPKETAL

Chain of PI3Kγ (P48736 whole entry, canonical isoform): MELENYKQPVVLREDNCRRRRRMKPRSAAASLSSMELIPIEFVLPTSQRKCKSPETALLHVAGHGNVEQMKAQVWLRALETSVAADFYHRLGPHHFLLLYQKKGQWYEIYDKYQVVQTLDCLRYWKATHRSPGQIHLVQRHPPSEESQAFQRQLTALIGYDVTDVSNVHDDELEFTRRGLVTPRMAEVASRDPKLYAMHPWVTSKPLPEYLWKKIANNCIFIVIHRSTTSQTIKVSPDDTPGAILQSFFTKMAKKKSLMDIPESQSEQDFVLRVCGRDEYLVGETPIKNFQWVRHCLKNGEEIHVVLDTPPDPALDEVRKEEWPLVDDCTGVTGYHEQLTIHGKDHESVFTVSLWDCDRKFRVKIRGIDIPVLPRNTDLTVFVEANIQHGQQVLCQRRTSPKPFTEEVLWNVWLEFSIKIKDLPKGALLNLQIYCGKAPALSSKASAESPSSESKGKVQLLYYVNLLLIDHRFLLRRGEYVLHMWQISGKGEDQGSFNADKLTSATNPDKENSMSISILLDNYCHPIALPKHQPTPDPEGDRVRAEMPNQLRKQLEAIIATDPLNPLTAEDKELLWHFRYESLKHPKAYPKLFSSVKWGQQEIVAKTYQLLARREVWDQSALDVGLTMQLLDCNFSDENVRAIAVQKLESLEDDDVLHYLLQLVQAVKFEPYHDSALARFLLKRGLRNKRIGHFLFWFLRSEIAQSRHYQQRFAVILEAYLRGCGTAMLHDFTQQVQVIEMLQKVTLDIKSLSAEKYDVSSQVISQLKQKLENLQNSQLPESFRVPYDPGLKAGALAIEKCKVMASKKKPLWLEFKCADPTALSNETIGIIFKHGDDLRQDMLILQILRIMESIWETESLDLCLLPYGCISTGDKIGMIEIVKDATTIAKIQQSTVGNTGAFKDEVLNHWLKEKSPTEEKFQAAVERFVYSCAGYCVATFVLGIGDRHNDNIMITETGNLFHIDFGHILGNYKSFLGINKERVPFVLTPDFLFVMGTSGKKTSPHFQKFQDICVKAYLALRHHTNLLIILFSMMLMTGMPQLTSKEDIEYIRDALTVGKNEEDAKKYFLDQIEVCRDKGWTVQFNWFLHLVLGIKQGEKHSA

CC(C)(C)Cn1c(N)nc2ccc(-c3[nH]c(C(C)(C)C)nc3-c3ccc(F)cc3)nc21 [LY2228820]
p38γ inhibition [1]: caused p38γ inhibition

Nc1ncnc2c1ncn2[C@@H]1O[C@H](COP(=O)(O)OP(=O)(O)OP(=O)(O)O)[C@@H](O)[C@H]1O [ATP]
Km ([2]; p38γ, read-out: ATP Km): 3.2 ± 0.4 µM

Cc1ccc([N+](=O)[O-])cc1S(=O)(=O)N(C)/N=C/c1cnc2ccc(Br)cn12 [Compound F7]
IC50 [3]: 0.042 µM
IC50 [4]: 0.034 µM
AnnexV_PI [5]: 17.8 Percentage
Live cells [5]: 42.797 Percentage
PI Stained [5]: 35.2 Percentage
AnnexV_PI [6]: 25.5 Percentage
Live cells [6]: 44.48 Percentage
PI Stained [6]: 29.53 Percentage
protein expression of p38 gamma [7]: reduces and eliminates the protein expression
cell viability in Hut78 cells ([8]; FIG. 19B / FIG. 29A): reduced cell viability
inhibition of growth ([8]; Hut78 CTCL cells, FIG. 19E): inhibition of growth
induction of apoptosis ([8]; Hut78 CTCL cells, data not shown): selective induction of apoptosis
proliferation of Hut78 cells ([8]; compared with Pirfenidone, FIG. 7): reduced proliferation of Hut78 cells more effectively than Pirfenidone
inhibition of kinase activity [9]: selective, dose-dependent inhibition
inhibition of growth ([10]; FIG. 19E): inhibition of growth
induction of apoptosis ([10]; data not shown): selective induction of apoptosis
inhibition of growth [11]: but not healthy CD4+ T cells
killing of CTCL cells [12]: selectively kills CTCL cells at nanomolar concentrations
effectiveness against CTCL cells ([12]; compared with PI3K-specific inhibitor A66, FIG. 28): more effective against CTCL cells than a PI3K-specific inhibitor
inhibition of CTCL cell growth ([12]; compared with Vorinostat (SAHA)): more potent inhibitor of CTCL cell growth than the FDA-approved HDACi Vorinostat
inhibition of tumor growth ([13]; 2 mg/kg, p=0.015, versus vehicle control): statistically significant dose-dependent inhibition of tumor growth
inhibition of tumor growth ([13]; 10 mg/kg, p=0.025, versus vehicle control): statistically significant dose-dependent inhibition of tumor growth
phosphorylation of p38γ substrate DLGH1 at Ser158 [14]: reduced phosphorylation
phosphorylation of p38γ substrate DLGH1 at Ser158 [15]: reduced phosphorylation
mechanism of inhibition ([2]; versus ATP): competitive mechanism
IC50 [16]: 0.076 µM
IC50 [17]: 0.046 µM
inhibition of kinase activity [18]: selective, dose-dependent inhibition

Cc1nc(NC(=O)N2CCC[C@H]2C(N)=O)sc1-c1csc(C(C)(C)C)n1 [Compound A66]
effect on viability of Hut78 cells [3]: no influence
phosphorylation of Akt at ser473 [19]: dose-dependent inhibition
inhibitory kinase activity against p38γ [20]: no inhibitory kinase activities; also recorded: doesn't inhibit

CS(=O)(=O)N1CCN(Cc2cc3nc(-c4cccc5[nH]ncc45)nc(N4CCOCC4)c3s2)CC1 [GDC-0941, Pictilisib]
effect on viability of Hut78 cells [3]: only modest reduction of cell viability
inhibitory kinase activity against p38γ [20]: no inhibitory kinase activities

Cc1ccc(=O)n(-c2ccccc2)c1 [Pirfenidone]
IC50 [3]: > 125 µM
IC50 [4]: > 125 µM
IC50 [21]: > 125 µM
p38γ inhibition in mice [22]: inhibits p38γ in mice
IC50 [17]: > 125 µM
IC50 [20]: > 125 µM

Cc1ccc([N+](=O)[O-])cc1S(=O)(=O)N(C)/N=C/c1cnc2ccc(-c3ccc(F)nc3)cn12 [Compound F7D10]
IC50 [3]: ~2.5 µM
IC50 [20]: ~3.4 µM

Cn1c(=O)n(-c2ccc(C(C)(C)C#N)cc2)c2c3cc(-c4cnc5ccccc5c4)ccc3ncc21 [BEZ235, Dactolisib]
effect on viability of Hut78 cells [3]: only modest reduction of cell viability
inhibitory kinase activity against p38γ [20]: no inhibitory kinase activities
